The supplement of paper PMC10307832

How the values were obtained:
Assay in all cases: relative viability (nuclei count vs DMSO), 5 days (fraction); higher = more cells survive
CAL-12T = system: CAL-12T
Outline: (§1)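 Nuclei were stained with Hoechst during a one-step fixation (final 0.05% Triton X-100, 1% formaldehyde, 1 ug/ml Hoechst) carried out 5 days after dosing, then counted on 4× images. The cells, lung cancer lines in 1536-well plates, had been dosed by pin tool the day after seeding with one drug alone or a fixed anchor-drug dose plus five library-drug doses (not always all listed) in √10 steps. Relative viability is the nuclei count in treated wells divided by that in vehicle wells, and each value is the median of duplicate plates.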

HCC-44 = system: HCC-44
Outline: as §1

COR-L23 = system: COR-L23
Outline: as §1

PC-14 = system: PC-14
Outline: as §1

LU99A = system: LU99A
Outline: as §1

NCI-H522 = system: NCI-H522
Outline: as §1

HCC-15 = system: HCC-15
Outline: as §1

NCI-H2087 = system: NCI-H2087
Outline: as §1

SK-MES-1 = system: SK-MES-1
Outline: as §1

HARA = system: HARA
Outline: as §1

NCI-H2170 = system: NCI-H2170
Outline: as §1

LC-2-ad = system: LC-2-ad
Outline: as §1

HCC-827 = system: HCC-827
Outline: as §1

HOP-62 = system: HOP-62
Outline: as §1

LXF-289 = system: LXF-289
Outline: as §1

LCLC-97TM1 = system: LCLC-97TM1
Outline: as §1

COR-L 105 = system: COR-L 105
Outline: as §1

NCI-H1993 = system: NCI-H1993
Outline: as §1

HCC-366 = system: HCC-366
Outline: as §1

NCI-H2009 = system: NCI-H2009
Outline: as §1

NCI-H2126 = system: NCI-H2126
Outline: as §1

PC-3 [JPC-3] = system: PC-3 [JPC-3]
Outline: as §1

In the case of `COCC1(CO)C(=O)C2CCN1CC2` (configuration not stated) [PRIMA-1MET] + CC(=O)c1c(C)c2cnc(Nc3ccc(N4CCNCC4)cn3)nc2n(C2CCCC2)c1=O [Palbociclib] (partner 0.5 µM), the relative viability (CAL-12T; first compound 0.2 µM) is reported as 0.339, the relative viability (CAL-12T; first compound 0.6325 µM) is reported as 0.373 and the relative viability (CAL-12T; first compound 2 µM) is reported as 0.446. The relative viability (CAL-12T; first compound 6.325 µM) was 0.439, the relative viability (CAL-12T; first compound 20 µM) was 0.0494 and the relative viability (HCC-44; first compound 0.2 µM) was 1.02. For the same compound, the relative viability (HCC-44; first compound 0.6325 µM) was 0.873, the relative viability (HCC-44; first compound 2 µM) was 0.95 and the relative viability (HCC-44; first compound 6.325 µM) was 0.954. For the same compound, the relative viability (HCC-44; first compound 20 µM) was 1.03, the relative viability (COR-L23; first compound 0.2 µM) was 0.291 and the relative viability (COR-L23; first compound 0.6325 µM) was 0.191. For the same compound, the relative viability (COR-L23; first compound 2 µM) was 0.251, the relative viability (COR-L23; first compound 6.325 µM) was 0.353 and the relative viability (COR-L23; first compound 20 µM) was 0.0222. The relative viability (PC-14; first compound 0.2 µM) was 0.644, the relative viability (PC-14; first compound 0.6325 µM) was 0.476 and the relative viability (PC-14; first compound 2 µM) was 0.509. For the same compound, the relative viability (PC-14; first compound 6.325 µM) was 0.525, the relative viability (PC-14; first compound 20 µM) was 0.0303 and the relative viability (LU99A; first compound 0.2 µM) was 0.43. The relative viability (LU99A; first compound 0.6325 µM) was 0.414, the relative viability (LU99A; first compound 2 µM) was 0.414 and the relative viability (LU99A; first compound 6.325 µM) was 0.349. For the same compound, the relative viability (LU99A; first compound 20 µM) was 0.225, the relative viability (NCI-H522; first compound 0.2 µM) was 1.05 and the relative viability (NCI-H522; first compound 0.6325 µM) was 0.94. For the same compound, the relative viability (NCI-H522; first compound 2 µM) was 0.862, the relative viability (NCI-H522; first compound 6.325 µM) was 0.774 and the relative viability (NCI-H522; first compound 20 µM) was 0.25. It also gave a relative viability (HCC-15; first compound 0.2 µM) of 0.677, a relative viability (HCC-15; first compound 0.6325 µM) of 0.407 and a relative viability (HCC-15; first compound 2 µM) of 0.687. The relative viability (HCC-15; first compound 6.325 µM) was 0.735, the relative viability (HCC-15; first compound 20 µM) was 0.652 and the relative viability (NCI-H2087; first compound 0.6325 µM) was 0.183. The relative viability (NCI-H2087; first compound 2 µM) was 0.22, the relative viability (NCI-H2087; first compound 6.325 µM) was 0.203 and the relative viability (NCI-H2087; first compound 20 µM) was 0.13. It also gave a relative viability (SK-MES-1; first compound 0.2 µM) of 0.323, a relative viability (SK-MES-1; first compound 0.6325 µM) of 0.371 and a relative viability (SK-MES-1; first compound 2 µM) of 0.326. It also gave a relative viability (SK-MES-1; first compound 6.325 µM) of 0.291, a relative viability (SK-MES-1; first compound 20 µM) of 0.295 and a relative viability (HARA; first compound 0.2 µM) of 0.252. The relative viability (HARA; first compound 0.6325 µM) was 0.318, the relative viability (HARA; first compound 6.325 µM) was 0.286 and the relative viability (HARA; first compound 20 µM) was 0.261. It also gave a relative viability (NCI-H2170; first compound 0.2 µM) of 0.422, a relative viability (NCI-H2170; first compound 0.6325 µM) of 0.36 and a relative viability (NCI-H2170; first compound 2 µM) of 0.391. For the same compound, the relative viability (NCI-H2170; first compound 6.325 µM) was 0.449, the relative viability (NCI-H2170; first compound 20 µM) was 0.379 and the relative viability (LC-2-ad; first compound 0.2 µM) was 0.496. For the same compound, the relative viability (LC-2-ad; first compound 0.6325 µM) was 0.484, the relative viability (LC-2-ad; first compound 2 µM) was 0.525 and the relative viability (LC-2-ad; first compound 6.325 µM) was 0.457. It also gave a relative viability (LC-2-ad; first compound 20 µM) of 0.468, a relative viability (HCC-827; first compound 0.2 µM) of 0.573 and a relative viability (HCC-827; first compound 0.6325 µM) of 0.462. For the same compound, the relative viability (HCC-827; first compound 2 µM) was 0.403, the relative viability (HCC-827; first compound 6.325 µM) was 0.506 and the relative viability (HCC-827; first compound 20 µM) was 0.615. The relative viability (HOP-62; first compound 0.2 µM) was 0.549, the relative viability (HOP-62; first compound 0.6325 µM) was 0.385 and the relative viability (HOP-62; first compound 2 µM) was 0.469. It also gave a relative viability (HOP-62; first compound 6.325 µM) of 0.475, a relative viability (HOP-62; first compound 20 µM) of 0.317 and a relative viability (LXF-289; first compound 0.2 µM) of 0.642. It also gave a relative viability (LXF-289; first compound 0.6325 µM) of 0.662, a relative viability (LXF-289; first compound 2 µM) of 0.734 and a relative viability (LXF-289; first compound 6.325 µM) of 0.594. It also gave a relative viability (LXF-289; first compound 20 µM) of 0.602, a relative viability (LCLC-97TM1; first compound 0.2 µM) of 0.215 and a relative viability (LCLC-97TM1; first compound 0.6325 µM) of 0.192. For the same compound, the relative viability (LCLC-97TM1; first compound 2 µM) was 0.193, the relative viability (LCLC-97TM1; first compound 6.325 µM) was 0.264 and the relative viability (LCLC-97TM1; first compound 20 µM) was 0.206. For the same compound, the relative viability (COR-L 105; first compound 0.2 µM) was 0.41, the relative viability (COR-L 105; first compound 0.6325 µM) was 0.363 and the relative viability (COR-L 105; first compound 2 µM) was 0.385. For the same compound, the relative viability (COR-L 105; first compound 6.325 µM) was 0.41, the relative viability (COR-L 105; first compound 20 µM) was 0.16 and the relative viability (NCI-H1993; first compound 0.2 µM) was 0.668. It also gave a relative viability (NCI-H1993; first compound 2 µM) of 0.715, a relative viability (NCI-H1993; first compound 6.325 µM) of 0.698 and a relative viability (NCI-H1993; first compound 20 µM) of 0.703. For the same compound, the relative viability (HCC-366; first compound 0.2 µM) was 0.433, the relative viability (HCC-366; first compound 0.6325 µM) was 0.31 and the relative viability (HCC-366; first compound 2 µM) was 0.382. It also gave a relative viability (HCC-366; first compound 6.325 µM) of 0.407, a relative viability (HCC-366; first compound 20 µM) of 0.0167 and a relative viability (NCI-H2009; first compound 0.2 µM) of 0.185. It also gave a relative viability (NCI-H2009; first compound 0.6325 µM) of 0.251, a relative viability (NCI-H2009; first compound 2 µM) of 0.112 and a relative viability (NCI-H2009; first compound 6.325 µM) of 0.215. For the same compound, the relative viability (NCI-H2009; first compound 20 µM) was 0.0008, the relative viability (NCI-H2126; first compound 0.2 µM) was 0.335 and the relative viability (NCI-H2126; first compound 0.6325 µM) was 0.336. It also gave a relative viability (NCI-H2126; first compound 2 µM) of 0.321, a relative viability (NCI-H2126; first compound 6.325 µM) of 0.372 and a relative viability (NCI-H2126; first compound 20 µM) of 0.326. It also gave a relative viability (PC-3 [JPC-3]; first compound 0.2 µM) of 0.597, a relative viability (PC-3 [JPC-3]; first compound 0.6325 µM) of 0.608 and a relative viability (PC-3 [JPC-3]; first compound 2 µM) of 0.573. For the same compound, the relative viability (PC-3 [JPC-3]; first compound 6.325 µM) was 0.574 and the relative viability (PC-3 [JPC-3]; first compound 20 µM) was 0.521.
